From patent publication US20250003953A1, “Methods and Model Systems for Assessing Therapeutic Properties of Candidate Agents and Related Computer Readable Media and Systems” (The Regents of the University of California, priority 2021, published 2025) come the findings set out here.

Experiment [1] has as its system H1373 KRAS.G12C mutant line. In words: Multi-arm combination therapy in-vivo mouse study. The settings on record: in combination with ARS1620; for synergy in tumor growth reduction: compared to null model of independence. The procedure: Bliss drug synergy is plotted and several compounds show significant drug synergy with multiple KRAS.G12C inhibitors.
Using the GENEVA dataset of ARS-1620 in a fourteen day drug treatment timeline in which drug resistance developed, gene expression indicators of resistance mechanisms were obtained (FIG. 4A). […] The strongest GENEVA prediction, mTOR resistance, was tested in a multi-arm in vivo mouse study and significant in vivo Bliss drug synergy and tumor reduction over time was found (FIG. 4C,D).
The GENEVA datasets were compared where GENEVA pools were drugged with the KRAS.G12C inhibitor ARS1620, conducted both in vitro and in vivo. Specifically, the in vitro data were compared against the in vivo data to look for differences and similarities attributable to the context of the model systems used. […] As a validation study, a combination therapy multi-arm in vivo mouse study was designed to test the efficacy of an EMT inhibitor, Galunisertib in combination with ARS1620.

Experiment [2] concerns panel of G12C and non G12C lines pooled in vivo as xenografts. Briefly: GENEVA combination therapy study in cell line pools in vivo as xenografts. The conditions noted are these: in combination with ARS1620; for drug synergy from cell cycle active/inactive proportions: G12C lines. Details: species or system mouse. The procedure:
Treatment conditions include Antimycin, ARS1620, Galunisertib, INK128, DMSO, ARS1620+Antimycin, ARS1620+Galunisertib, ARS1620+INK128. FIG. 8B utilizes GENEVA data from FIG. 8A for synergy calculations performed on cell cycle states in each drug condition singly and in combination estimated for G12C lines across drug conditions.
2 mL of Matrigel Basement Membrane reagent was added to the GENEVA pool prepared by growth rate balancing for a final concentration of 20M/mL. One hundred microliters of this solution was injected into NSG mice in a flank xenograft injection. Twenty-four hours later, mice harboring GENEVA tumors were drugged with the drug compound in a vehicle solution of 5% DMSO, 95% Labrasol. Mice were dosed by oral gavage four fourteen days with five days on, two days off. On the fourteenth day, mice were sacrificed, tumors harvested by homogenization with surgical shears and resuspended in 5 mg/mL Liberase™ Cell Dissociation Reagent in 1:1 DMEM: F12 cell media, DNAse I (10 U/uL). Tumors were incubated in a 37° C. incubator with shaking at 600 RPMs for 45 minutes for enzymatic dissociation and then spun down at 800 g for 5 minutes at 4° C. Dissociated tumors were resuspended in 100 uL 1×PBS.
A panel of G12C and non G12C lines pooled in vivo as xenografts was utilized to conduct combination therapy studies comparing ARS1620 with and without Galunisertib, INK128, and Antimycin for a total of eight different treatment conditions; these compounds were taken from our combination therapy discoveries and mechanistic understanding of mitochondrial action of ARS1620 (FIG. 8A).

The test system of experiment [3] is lipid peroxidation. In words: Lipid peroxidation live cell probe dose curve and survival kinetics. The conditions noted are these: dose curves. Format: cell-based. An excerpt:
FIG. 7B plots gene expression of anti-ferroptotic genes for each cell line in response to increasing ARS1620 dosage. […] Lipid peroxidation and survival kinetics cross over around IC50 in all compounds indicating ARS1620 performs as a ferroptosis inducing agent.
Among this group of genes were FTH1 and FTL, the two components of the Ferritin Complex, which is responsible for sequestration of labile free iron. Using a lipid peroxidation live cell probe, lipid peroxidation—one of the hallmark phenotypes of ferroptosis—was measured in response to ARS-1620 treatment.

Consider `Cc1cccc(-c2nn3c(c2-c2ccnc4ccc(C(N)=O)cc24)CCC3)n1` [Galunisertib], for which the “synergy in tumor growth reduction” value in experiment [1] was “reduce growth synergistically”. The “suppression of tumor growth (relative tumor volume)” value in experiment [1] (n=4-5 mice per condition) is listed as “extremely effective in suppressing tumor growth”. For the same compound, in experiment [2], the “gene-level synergy on mitochondrial reads (linear model)” value is reported as “further increase the synergistic decrease in mitochondrial reads” and the “drug synergy from cell cycle active/inactive proportions” value was “relative in vivo synergy”.

As to antimycin, the “drug synergy from cell cycle active/inactive proportions” value in experiment [2] is recorded as “antagonistic effect”.

On to `CN(C)c1nc(N(C)C)nc(N(C)C)n1` [Altretamine], for which the “cross-over of survival and normalized lipid peroxidation curves” value in experiment [3] is on record as “crossed over around the IC50 survival value”.

As for `CC(C)n1nc(-c2ccc3oc(N)nc3c2)c2c(N)ncnc21` [INK128], in experiment [1], the “synergy in tumor growth reduction” value is listed as “synergistically reduce tumor growth in-vivo”. Further, in experiment [2], the “gene-level synergy on mitochondrial reads (linear model)” value is “further increase the synergistic decrease in mitochondrial reads” and the “drug synergy from cell cycle active/inactive proportions” value is “relative in vivo synergy”.
